Laboratory results published in paper PMC2643072 (Journal of medicinal chemistry, 2008).

Molecular target: T1, porcine erythrocyte μ-calpain (Sus scrofa, UniProt P35750)
T1 sequence (P35750 1-714): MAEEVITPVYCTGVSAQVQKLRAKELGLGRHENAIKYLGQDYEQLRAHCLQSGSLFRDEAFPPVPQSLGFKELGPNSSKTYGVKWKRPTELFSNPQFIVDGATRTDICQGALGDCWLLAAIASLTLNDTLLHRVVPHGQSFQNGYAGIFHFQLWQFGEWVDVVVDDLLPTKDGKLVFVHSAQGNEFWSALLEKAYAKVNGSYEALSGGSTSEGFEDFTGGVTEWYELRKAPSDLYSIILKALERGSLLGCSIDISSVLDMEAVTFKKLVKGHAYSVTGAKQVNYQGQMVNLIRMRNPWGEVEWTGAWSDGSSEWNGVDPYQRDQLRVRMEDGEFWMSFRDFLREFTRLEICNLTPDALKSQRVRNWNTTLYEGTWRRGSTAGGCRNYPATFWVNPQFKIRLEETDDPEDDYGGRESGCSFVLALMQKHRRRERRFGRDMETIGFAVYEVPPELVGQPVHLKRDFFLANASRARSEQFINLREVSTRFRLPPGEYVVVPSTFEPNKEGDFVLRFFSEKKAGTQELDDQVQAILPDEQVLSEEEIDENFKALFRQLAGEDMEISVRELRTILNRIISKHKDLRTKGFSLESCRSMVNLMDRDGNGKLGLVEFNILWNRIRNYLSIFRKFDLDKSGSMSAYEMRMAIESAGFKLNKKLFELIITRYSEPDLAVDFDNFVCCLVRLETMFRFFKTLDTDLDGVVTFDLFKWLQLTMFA
T1 sequence (P04574 1-266 partner): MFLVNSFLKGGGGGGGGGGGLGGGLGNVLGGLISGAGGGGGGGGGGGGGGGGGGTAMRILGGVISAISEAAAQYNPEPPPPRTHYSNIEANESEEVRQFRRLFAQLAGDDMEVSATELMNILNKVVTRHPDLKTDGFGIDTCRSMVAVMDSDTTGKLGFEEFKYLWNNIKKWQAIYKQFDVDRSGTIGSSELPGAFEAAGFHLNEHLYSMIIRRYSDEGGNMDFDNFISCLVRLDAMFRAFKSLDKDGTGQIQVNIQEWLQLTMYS
Assay: μ-Calpain inhibition assay
Assay type: biochemical

Structure (SMILES)	fold more potent than 2a and 2b (μ-calpain inhibition) (planar fluorene cap vs cyclohexyl (2a) and adamantyl (2b) caps)	μ-calpain inhibitory potency relative to 2c (diphenylpropionyl (2d) vs diphenylacetyl (2c) N-terminal cap)
CC(C)C[C@H](NC(=O)CC1c2ccccc2-c2ccccc21)C(=O)NC(Cc1ccccc1)C(=O)C(=O)O (stereo partly drawn) [Compound 2e, N-(9-Fluoreneacetyl)-L-leucyl-2-oxo-3(R,S)-amino-4-phenylbutanoic acid]	over 5 fold	
CC(C)C[C@H](NC(=O)CC(c1ccccc1)c1ccccc1)C(=O)NC(Cc1ccccc1)C(=O)C(=O)O (stereo partly drawn) [Compound 2d, N-(3,3-Diphenylpropionyl)-L-leucyl-2-oxo-3(R,S)-amino-4-phenylbutanoic acid]		about twice as potent
